Assay results published in patent publication US10227295B2, “Selective histone deactylase 6 inhibitors” (H. LEE MOFFITT CANCER CENTER AND RESEARCH INSTITUTE, INC., priority 2013, dated 2019).

Experiments:
Assay type in all cases: cell-based
[1] = test system: NRAS and BRAF mutant human melanoma cell lines; test: Human melanoma cell proliferation MTS assay; details: 24 h, panel of human melanoma cell lines
Protocol: Cell proliferation was evaluated using various pan- and isotype selective HDACi in a broad panel of human melanoma cell lines. Briefly, cells were plated at 10×10^3/well in a 96 well flat bottom plate. The following day, media was changed to that containing different concentrations of HDACi or matched DMSO vehicle concentrations diluted in complete medium done in triplicate, all with a final concentration of less than 0.1% DMSO. Cells were incubated for 24 hours at 37° C. and 5% CO2. […] All values were then normalized and expressed as a percentage of medium control growth.

[2] = test system: acetyl-tubulin and acetyl-histone3 in human melanoma cell lines; test: Western blot of HDAC substrate acetylation in human melanoma cells; details: 24 hrs
Protocol: Error bars represent standard deviation from triplicates. This figure is representative of three independent experiments. (F,G,H) Cell cycle analysis of melanoma WM164, WM983A and WM793 human melanoma cell lines stained with propidium iodide. Data is representative of three experiments with similar results.
To confirm the selectivity of isotype specific HDACi, Western blot analysis was performed on the acetylation status of known HDAC substrates including histone H3 and H4, which are known Class I HDAC targets, and α-tubulin, a target for HDAC6. The doses required to impart the anti-proliferative effect coincided with that needed to increase acetylation of the respective HDAC substrates (FIG. 41F-41H). […] Conversely, HDAC6 selective inhibitors (HDAC6i) increase α-tubulin acetylation but not histone acetylation (FIG. 41F).

[3] = test system: human melanoma cell lines; test: Cell cycle analysis by propidium iodide staining
Protocol: Cells were treated with indicated doses of HDAC inhibitors or DMSO control and then trypsinized, washed, and rendered into a single cell suspension in 1 mL of DPBS. 4 mL ice cold 200 proof ethyl alcohol was added dropwise while vortexing to fix cells. Samples were washed and resuspended in 75% ethanol solution overnight. Then, cells were washed in PBS+0.1% Triton X-100 and counted. Equal numbers of cells were then stained in a solution containing 10 μg/mL RNAseA+1 μg/mL propidium iodide for 2 hours at room temperature. Data was then acquired using a FACSCaliber with at least 10,000 events collected. Cell cycle analysis was completed using ModFit LT (Verity Software House, Topsham, Me.).

In the case of `Nc1ccccc1NC(=O)c1ccc(CNc2nccc(-c3cccnc3)n2)cc1` [MGCD0103], the “concentration range inhibiting proliferation (in words)” value [1] is reported as “low micromolar range”, the “acetylation of α-tubulin and histone” value [2] is reported as “unchanged” and the cell cycle effects [3] is reported as “variable cell cycle effects”.
